Reference: the supplement of paper PMC8988213
Counter-ions that a name gives are not always drawn.

Columns and labels:
[1] = test system: ID211 patient-derived PDAC 2D line (post-FOLFIRINOX); experiment: normalised area under dose-response curve (viability relative to DMSO, 7 doses up to 10 µM) (fraction (AUC)); higher = less sensitive (more viability retained); details: 72 h; top dose: 10 µM
Method in brief: (§1)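 A robot plated 1,500–3,000 cells/well of patient-derived 2D PDAC cells, outgrown from organoids, into 96-well plates, followed by overnight incubation at 37°C, 5% CO2. The cells were exposed for 72 h to SelleckChem library compounds at seven 3-fold-diluted concentrations up to 10 µM, and CellTiter-Glo luminescence was read after 10 min. Area under the dose-response curve came from the GRmetrics R package, with viability normalised to control wells.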

[2] = test system: ID188 patient-derived PDAC 2D line (pre-FOLFIRINOX); experiment: as above; details: 72 h; top dose: 10 µM
Method in brief: as §1

SMILES	normalised area under dose-response curve [1]	normalised area under dose-response curve [2]
C=CC(=O)Nc1cccc(Nc2nc(Nc3ccc(OCCOC)cc3)ncc2F)c1 [Spebrutinib (CC-292, AVL-292)]	0.888	0.709
Nc1ccc(S(=O)(=O)NC(=O)c2ccccc2)cc1 [Sulfabenzamide]	0.747	0.926
CNC(=O)c1ccc2cc([C@@]3(O)CCn4cncc43)ccc2c1 [TAK-700 (Orteronel)]	0.863	1
CC(C)CC(CC(=O)NO)C(=O)N[C@@H](Cc1ccc2ccccc2c1)C(=O)N[C@@H](C)C(=O)NCCN (stereo partly drawn) [TAPI-1]	0.9	0.641
CNc1cc(-c2cccc(Cl)c2Cl)nc(N)n1 [TH287]	0.901	0.896
Nc1nc(NC2CC2)cc(-c2cccc(Cl)c2Cl)n1 [TH588]	0.918	0.914
C[C@H]1CNC(=O)c2cnn3ccc(nc23)N[C@H](C)c2cc(F)ccc2O1 [TPX-0005]	0.728	0.777
CCN(c1cc(-c2ccc(CN3CCOCC3)cc2)cc(C(=O)NCc2c(C)cc(C)[nH]c2=O)c1C)C1CCOCC1 [Tazemetostat (EPZ-6438)]	0.716	0.863
CC(C)(CO)c1cc2cc(NC(=O)C3(c4ccc5c(c4)OC(F)(F)O5)CC3)c(F)cc2n1C[C@@H](O)CO [Tezacaftor(VX-661)]	1.02	0.925
CCCCCCCCCCCCCC(=S)NCCCC[C@H](NC(=O)OCc1ccccc1)C(=O)Nc1ccccc1 [Thiomyristoyl]	0.787	0.925
Cn1cncc1[C@@](N)(c1ccc(Cl)cc1)c1ccc2c(c1)c(-c1cccc(Cl)c1)cc(=O)n2C [Tipifarnib]	0.832	0.913
CC[C@@]1(O)C(=O)OCc2c1cc1n(c2=O)Cc2cc3c(CN(C)C)c(O)ccc3nc2-1 [Topotecan HCl]	0.464	0.523
Cc1cc(Nc2cc(N3CCN(C)CC3)nc(Sc3ccc(NC(=O)C4CC4)cc3)n2)n[nH]1 [Tozasertib (VX-680, MK-0457)]	0.716	0.235
CC1=C(/C=C/C(C)=C/C=C/C(C)=C/C(=O)O)C(C)(C)CCC1 [Tretinoin]	0.841	1.12
NS(=O)(=O)c1ccc(NC(=O)Nc2ccc(F)cc2)cc1 [U-104]	0.976	0.94
COc1cc2nc(N3CCCC3)nc(NCCCCCN3CCCC3)c2cc1OC [UNC0379]	0.829	0.943
O=C(c1cncc(Br)c1)N1CCC(N2CCCC2)CC1 [UNC669]	0.946	0.922
O=C(c1ccc(C(=O)N2CCC(N3CCCC3)CC2)c(Nc2ccccc2)c1)N1CCC(N2CCCC2)CC1 [UNC1215]	0.951	0.931
CCCc1cc(C)[nH]c(=O)c1CNC(=O)c1cc(-c2ccc(N3CCN(C(C)C)CC3)nc2)cc2c1cnn2C(C)C [UNC1999]	0.786	0.932
CNCc1ccc(-c2cc(-c3nc(-c4ccc(S(=O)(=O)C(C)C)cc4)cnc3N)on2)cc1 [VE-822]	0.888	0.693
C=CC(=O)N1CC/C(=C\c2ccc(F)c([N+](=O)[O-])c2)C(=O)/C(=C/c2ccc(F)c([N+](=O)[O-])c2)C1 [VLX1570]	0.243	0.602
CC(C)(O)CNc1ncc(-c2ccnc(Nc3ccnc(Cl)c3)n2)c(CC2CC2)n1 [VPS34-IN1]	0.824	0.949

SMILES	normalised area under dose-response curve [1]	normalised area under dose-response curve [2]
Cc1cccc(-c2[nH]c(CNc3ccccc3F)nc2-c2ccc3ncnn3c2)n1 [Vactosertib (TEW-7197)]	0.871	0.931
Clc1ccc(Nc2nnc(Cc3ccncc3)c3ccccc23)cc1 [Vatalanib (PTK787) 2HCl]	0.894	0.926
C[C@]1(c2nc3c(C(N)=O)cccc3[nH]2)CCCN1 [Veliparib (ABT-888)]	0.923	0.913
CCCS(=O)(=O)Nc1ccc(F)c(C(=O)c2c[nH]c3ncc(-c4ccc(Cl)cc4)cc23)c1F [Vemurafenib (PLX4032, RG7204)]	0.883	0.813
CC1(C)CCC(CN2CCN(c3ccc(C(=O)NS(=O)(=O)c4ccc(NCC5CCOCC5)c([N+](=O)[O-])c4)c(Oc4cnc5[nH]ccc5c4)c3)CC2)=C(c2ccc(Cl)cc2)C1 [Venetoclax (ABT-199, GDC-0199)]	0.887	0.928
CC[C@]1(O)C[C@H]2CN(CCc3c([nH]c4ccccc34)[C@@](C(=O)OC)(c3cc4c(cc3OC)N(C=O)[C@H]3[C@@](O)(C(=O)OC)[C@H](OC(C)=O)[C@]5(CC)C=CCN6CC[C@]43[C@@H]65)C2)C1 [Vincristine sulfate]	0.441	0.558
CCC1=C[C@@H]2CN(C1)Cc1c([nH]c3ccccc13)[C@@](C(=O)OC)(c1cc3c(cc1OC)N(C)[C@H]1[C@@](O)(C(=O)OC)[C@H](OC(C)=O)[C@]4(CC)C=CCN5CC[C@]31[C@@H]54)C2 [Vinorelbine Tartrate]	0.338	0.546
CS(=O)(=O)c1ccc(C(=O)Nc2ccc(Cl)c(-c3ccccn3)c2)c(Cl)c1 [Vismodegib (GDC-0449)]	0.84	0.926
CNC(=O)c1cccc(-c2ccc3c(N4CCOC[C@@H]4C)nc(N4CCOC[C@@H]4C)nc3n2)c1 [Vistusertib (AZD2014)]	0.765	0.723
CC[C@@H]1C(=O)N(C)c2cnc(Nc3ccc(C(=O)N[C@H]4CC[C@H](N5CCN(CC6CC6)CC5)CC4)cc3OC)nc2N1C(C)C [Volasertib (BI 6727)]	0.707	0.701
COc1ccc(N(C(=O)Oc2c(C)cccc2C)c2ccnc(Nc3ccc(N4CCN(C)CC4)cc3)n2)c(OC)c1 [WH-4-023]	0.935	0.929
COc1ccc(-n2c(SCCCN3C(=O)c4cccc5cccc(c45)C3=O)nnc2-c2ccncc2)cc1 [WIKI4]	0.85	0.837
CCC(=O)Nc1cccc(Oc2nc(Nc3ccc(N4CCN(C)CC4)cc3OC)ncc2Cl)c1 [WZ4003]	0.896	0.965
Oc1nc(-c2ccc(C(F)(F)F)cc2)nc2c1CSCC2 [XAV-939]	0.928	0.89
CN1c2ccccc2C(=O)Nc2cnc(Nc3ccc(N4CCC(O)CC4)cc3)nc21 [XMD16-5]	0.783	0.906
COc1cc(O)c(CC=C(C)C)c(O)c1C(=O)/C=C/c1ccc(O)cc1 [Xanthohumol]	0.926	0.943
COCC[n+]1c2c(n(Cc3cnccn3)c1C)C(=O)c1ccccc1C2=O [YM155 (Sepantronium Bromide)]	0.279	0.0409
Cc1cc(C)nc(NS(=O)(=O)c2ccc(NC(=S)NC(=O)COc3ccc(Br)cc3Cl)cc2)n1 [ZCL278]	0.777	0.928
FC(F)c1nc2ccccc2n1-c1nc(N2CCOCC2)nc(N2CCOCC2)n1 [ZSTK474]	0.642	0.712
COc1nc(C)cnc1NS(=O)(=O)c1cccnc1-c1ccc(-c2nnco2)cc1 [Zibotentan (ZD4054)]	0.955	0.96
CC(c1cc2ccccc2s1)N(O)C(N)=O (stereo not drawn) [Zileuton]	0.859	0.817
C=CC(=O)N1C/C(=C\c2ccc([N+](=O)[O-])cc2)C(=O)/C(=C/c2ccc([N+](=O)[O-])cc2)C1 [b-AP15]	0.671	0.504
